From ChEMBL document CHEMBL2429714, “Synthesis and analgesic activity of monoterpenoid-derived 2-aryl-4,4,7-trimethyl-4a,5,8,8a-tetrahydro-4H-benzo[d][1,3]dioxin-8-ols” (Med Chem Res, 2013)

Key:
Mus musculus [1] = experiment: Analgesic activity in albino mouse assessed as inhibition of abdominal convulsion at 10 mg/kg, po administered 1 hr prior to acetic acid challenge measured at 5 to 8 mins by acetic acid-induced writhing test relative to control; format: functional; details: Abdomen
Mus musculus [2] = experiment: Analgesic activity in po dosed albino mouse assessed as protection against acetic acid-induced writhing administered 1 hr prior to prior to acetic acid challenge measured at 5 to 8 mins; format: functional
Mus musculus [3] = experiment: Analgesic activity in albino mouse assessed as protection against thermal-induced paw licking or jumping behaviour at 10 mg/kg, po administered 1 hr prior to testing by hot plate test relative to control; format: functional
[4] = Toxicity in po dosed albino mouse; format: organism-based; details: in vivo

## CC1=CC[C@@H]2[C@@H](O[C@H](c3ccc(Cl)cc3)OC2(C)C)[C@@H]1O
Mus musculus [1]
  inhibition in vivo at 10 mg/kg: 88%
Mus musculus [2]
  ED50: 4.5 mg/kg
Mus musculus [3]
  Activity: 8%

## CC1=CC[C@@H]2[C@@H](O[C@H](c3ccc(F)cc3)OC2(C)C)[C@@H]1O
Mus musculus [1]
  inhibition in vivo at 10 mg/kg: 40%
[4]
  LD50: 1000 mg/kg
Mus musculus [3]
  Activity: 0%

## CC1=CC[C@@H]2[C@@H](O[C@H](c3ccc(Br)cc3)OC2(C)C)[C@@H]1O
Mus musculus [1]
  inhibition in vivo at 10 mg/kg: 33%
Mus musculus [3]
  Activity: 33%

## CC1=CC[C@@H]2[C@@H](O[C@H](c3ccc([N+](=O)[O-])cc3)OC2(C)C)[C@@H]1O
Mus musculus [1]
  inhibition in vivo at 10 mg/kg: 65%
Mus musculus [3]
  Activity: 84%

## CC1=CC[C@@H]2[C@@H](O[C@H](c3cccc(Cl)c3)OC2(C)C)[C@@H]1O
Mus musculus [1]
  inhibition in vivo at 10 mg/kg: 27%
Mus musculus [3]
  Activity: 36%

## CC1=CC[C@@H]2[C@@H](O[C@H](c3ccc(Cl)c(Cl)c3)OC2(C)C)[C@@H]1O
Mus musculus [1]
  inhibition in vivo at 10 mg/kg: 14%
Mus musculus [3]
  Activity: 36%

## CC1=CC[C@@H]2[C@@H](O[C@H](c3cccc(F)c3)OC2(C)C)[C@@H]1O
Mus musculus [1]
  inhibition in vivo at 10 mg/kg: 40%
Mus musculus [3]
  Activity: 0%

## CC1=CC[C@@H]2[C@@H](O[C@H](c3ccc(C(F)(F)F)cc3)OC2(C)C)[C@@H]1O
Mus musculus [1]
  inhibition in vivo at 10 mg/kg: 52%
Mus musculus [3]
  Activity: 30%

## CC1=CC[C@@H]2[C@@H](O[C@H](c3cccc(Cl)c3)CC2(C)O)[C@@H]1O (mixture of isomers)
Mus musculus [1]
  inhibition in vivo at 10 mg/kg: 26%
Mus musculus [3]
  Activity: 14%

## O=C([O-])Cc1ccccc1Nc1c(Cl)cccc1Cl.[Na+] [DICLOFENAC SODIUM]
Mus musculus [1]
  inhibition in vivo at 10 mg/kg: 90%
Mus musculus [2]
  ED50: 5 mg/kg
Mus musculus [3]
  Activity: 64%
